Assay results taken from publication PMC6412119 (2019).

Test system: c-MYC Pu22-G10>T10 (DNA, G4) TGAGGGTGGTTAGGGTGGGTAA
Experiment: fluorescence light-up
Details: 100 mM KCl; 10 mM potassium phosphate pH 7.0; 0.5 μM each; weak response

binding: weak
Compound: C(=NNc1nc(Nc2ccccc2)nc(Nc2ccccc2)n1)c1c2ccccc2cc2ccccc12
